Assay results as given in patent publication US20060167229A1, “Biologically active peptide conjugates” (priority 2002, published 2006).
Marks after values point to notes of the source that are not given here. Ends that are not written are not given here.

Tests used:
Format in all cases: in vivo, BALB/c mice
spleen = test: Immunity organ weight test, spleen index; conditions: for weight of spleen (spleen index), X ± SD (%): healthy mice, saline 0.53 ± 0.05; for effect on the weight of the spleen (summary): statistically significant difference from saline in any of the dosage groups 0.5-500 μg/kg/day
Method: One day after the last test substance administration (day 16), the liver, spleen, and thymus gland were separated and blotted dry with filter paper and weighed. The phagocytosis index α was calculated as below: α=(^3√{square root over ( )}K)(W÷WLS)
Spleen index (%)=(spleen weight/body weight)×100%

NK cell = NK cell activity in mice with ascitic fluid type liver cancer H22; conditions: saline 24.0 ± 8.2
Method: (§1) Healthy BALB/c mice were randomised into peptide group, rmIFN-γ group, rhIL-2 group, and saline group, 15 mice per group, and prepared into H22 carrying mice model as described in section Method 3. After implantation of the cancer cells, the test substances were administered for 15 days, the mice were killed by cervical dislocation. The spleen was isolated aseptically and manually dispersed in cold D-Hank's solution using an injection needle. The dispersed cell suspension was further sieved through a 100-gauge 150 μm diameter stainless steel sieve. After centrifugation at 200 g for 10 minutes, the supernatant was discarded. The cell pellet was re-suspended in 10 volume of Tris-NH4Cl buffer and then kept standing still for 10 minutes at room temperature. The suspended cells were collected by centrifugation at 150 g for 10 minutes. The cells were washed 2-4 times with cold D-Hank's solution by re-suspending and collecting by centrifugation with condition as described above. The washed cells were then diluted to the desired cell densities by RPMI-1640 culture medium, containing 10% fetal bovine serum.
Mice spleen cells were prepared to 4×10^6/ml as described in section 4.1 above. Target cells YAC-1 were brought to log phase and adjusted to 1×10^5/ml. Using a 96 wells cell culture plate, 100 μl mouse spleen cells and 100 μl culture medium were added to the control well containing only the spleen cells; 100 μl target cells and 100 μl culture medium were added to the control well containing only target cells; 100 μl mouse spleen cells and 100 μl target cells were added to the NK activity assay well. Three parallel sets of the above were prepared per mouse. After that, the 96 wells cell culture plates were incubated for 4 hrs at 37° C., 5% CO2.
Samples were centrifuged at 150 g for 10 minutes to collect the cells. The supernatant was discarded and 50 μl/well MTT of 1 mg/ml was added. The reaction-mixture was then shaken for 2 minutes, and incubated at 37° C., 5% CO2 for 4 hours. The supernatant was discarded after centrifugation at 150 g for 10 minutes. 120 μl 40 mM HCl-2-propanol was added and shaken for 3 minutes. An ELISA reader was used to obtain OD570 nm of each well referenced at 630 nm.
The NK cell activity index of each mouse was obtained by first deriving the average OD of the three parallel wells of each combination, then applying this average OD to the following formula: NK cell activity index=[1−(average OD of spleen and target cell well−average OD of spleen cell only well)÷(average OD of target cell only well)]×100% 5. The Effect of Peptides on the Survival of DBA/2 Mice with Transplanted L1210 Leukemia

[1] = test system: ascitic fluid type liver cancer H22; test: Survival of mice with transplanted ascitic fluid type liver cancer H22; conditions: for Survival days: saline 26.2 ± 6.8
Method: (§2) Intraperitoneal injection, once per day. […] Treatment of all groups with testing substance lasted for 30 days or until the animal died unless otherwise specified.
Stock H22 cells were incubated in DMEM/F12 medium supplemented with 10% fetal bovine serum, 37° C./5% CO2 for 72 hrs, then washed 3-4 times with Hank's solution at room temperature. Adjust cell concentration to 1-2×10^9 per litre with Hank's solution. 0.2 ml of the cell suspension was implanted to the abdominal cavity of several BALB/c mice for 6-8 days. The mice were killed by cervical vertebra dislocation. Ascitic fluid of the mice was collected aseptically and the cell concentration adjusted to 1×10^6 per ml with Hank's solution. 0.2 ml of the cell suspension was implanted into the abdominal cavity of healthy mice to generate the H22 carrying mouse model for ascitic fluid type liver cancer. Administration of test substance started as described in section Method 1. Survival data of the mice was recorded. If the animal survived longer than the experiment, the survival days was recorded as the duration of the experiment. Mean survival day was obtained by the Kaplan-meier method in the Survival option of the SPSS software. The survival index was calculated according to the following formula: Survival index=(mean survival days in treatment group−mean survival days of control group)÷mean survival days of control group×100% 4. The Effect of Peptides on the Cellular Immunity of BALB/c Mice with Transplanted Ascitic Fluid Type Liver Cancer H22 4.1 Preparation of Spleen Cell Suspension^[1,4]

S180 sarcoma = test: Growth of transplanted S180 sarcoma; conditions: for Tumor weight: saline 1.29 ± 0.50
Method: as §2
Stock S180 sarcoma cells were incubated in DMEM/F12 medium supplemented with 10% fetal bovine serum, 37° C., 5% CO2 for 72 hrs, then washed 3-4 times with Hank's solution at room temperature. Adjust the cell concentration to 1-2×10^9 per litre with Hank's solution. […] The mice were killed by cervical vertebra dislocation. Vigorously growing and non-disrupted tumor masses were harvested and washed clean with sterile saline. The tissue was dispersed in saline to a homogenous cell suspension, in a ratio of 1 g tissue to 4 ml saline. The sarcoma bearing mice model was prepared with an injection of 0.2 ml cell suspension through the armpit. Administration of test substance treatment started as described in section Method 1.
2.2 The Tumor Growth Inhibition Index was Calculated According to the Following Formula: Tumor growth inhibition index=(mean tumor weight of control group−mean tumor weight of treatment group)÷mean tumor weight of control group 3.

T lymphocyte = T lymphocyte transformation in mice with ascitic fluid type liver cancer H22; conditions: saline 1.25 ± 0.07
Method: as §1
Spleen cells of density 1×10^6/ml were placed onto a 96 wells cell culture plate, 100 μl/well, three parallel wells each of the assay sample and control sample per mouse. To the assay wells, 100 μl/well ConA of 100 μg/ml in RPMI-1640 was added, and 100 μl/well plain RPMI-1640 was used for the controls. The cells were incubated for 66 hrs at 37° C., 5% CO2. The cells were then pelleted by centrifugation at 150 g for 10 minutes.
50 μl/well MTT of 1 mg/ml in RPMI-1640 was added to the cell pellet and the cells re-suspended by shaking for 2 minutes. The incubation was continued for 4 hours. The supernatant was discarded after centrifugation at 150 g for 10 minutes. 120 μl 40 mM HCl-2-propanol was added to the cell pellet and shaken for 3 minutes. Use an ELISA reader to obtain OD570 nm of each well referenced at 630 nm.
Each mouse formed three assay wells and three control wells. The Stimulation Index (SI) of each mouse was obtained by first deriving the average OD of the three parallel wells, then dividing the value of the assay wells by the control wells.

[2] = peptide 500 μg/kg/day i.p. 15 days
[3] = Table 28, peptide 5 μg/kg/day (so in the source) i.p. 15 days (IFN-γ, IL-2 3×10^5 IU/kg/day)
[4] = peptide 0.5 μg/kg/day i.p. 15 days (IFN-γ, IL-2 3×10^5 IU/kg/day)
[5] = dose 0.5 μg/kg i.p. once per day
[6] = dose 50 μg/kg i.p. once per day
[7] = dose 500 μg/kg i.p. once per day
[8] = controls: IL-2, IFN-γ 3 × 10^5 IU/kg, cyclophosphamide 20 mg/kg
[9] = controls: rhIL-2, rmIFN-γ 3 × 10^5 IU/kg, cyclophosphamide 20 mg/kg

FNFVPP [CMS003]
weight of spleen (spleen index), X ± SD (%) (spleen; [2]): 0.40 ± 0.04 %
effect on the weight of the spleen (summary) (spleen): decrease
NK activity index (%) (NK cell; dose 500 μg/kg): 37.9 ± 14.5*^^$ %

KAVGHLDDLPGAL [CMS008]
weight of spleen (spleen index), X ± SD (%) (spleen; [3]): 0.39 ± 0.08 %
effect on the weight of the spleen (summary) (spleen): decrease
Survival index (%) ([1]; dose 5 μg/kg i.p. once per day): 67.8%
Survival days ([1]; dose 5 μg/kg i.p. once per day): 50.7 ± 20.9*^& days

LRVAPQQHPTL [CMS009]
weight of spleen (spleen index), X ± SD (%) (spleen; [2]): 0.41 ± 0.03 %
effect on the weight of the spleen (summary) (spleen): decrease

PTTKTYFPHF [CMS001]
weight of spleen (spleen index), X ± SD (%) (spleen; [4]): 0.40 ± 0.05 %
weight of spleen (spleen index), X ± SD (%) (spleen; [2]): 0.43 ± 0.07 %
effect on the weight of the spleen (summary) (spleen): decrease

Phe Gln Gln Gln (FQQQ; printed: Phe Gln Gln Gln) [CMS032]
Survival index (%) [1, 5]: 63.3%
Survival days [1, 5]: 42.8 ± 12.2*^^&$ days
NK activity index (%) (NK cell; dose 5 μg/kg): 52.6 ± 12.5*^^$& %
NK activity index (%) (NK cell; dose 50 μg/kg): 41.0 ± 18.7*^^$& %

Phe Val Asn Asp (FVND; listed as Sus scrofa) [CMS035]
Tumor inhibition index (%) (S180 sarcoma; dose 5 μg/kg i.p. once per day): 44.6%
Tumor weight (S180 sarcoma; dose 5 μg/kg i.p. once per day): 0.71 ± 0.37 g
Stimulation index (T lymphocyte; dose 0.5 μg/kg): 1.40 ± 0.13*^$
Stimulation index (T lymphocyte; dose 5 μg/kg): 1.46 ± 0.16*^$

Pro Gln Asn Phe (PQNF; printed: Pro Gln Asn Phe) [CMS034]
Tumor inhibition index (%) (S180 sarcoma; [5]): 35.9%
Tumor weight (S180 sarcoma; [5]): 0.83 ± 0.48 g
Stimulation index (T lymphocyte; dose 0.5 μg/kg): 1.37 ± 0.10*^$
NK activity index (%) (NK cell; dose 50 μg/kg): 57.3 ± 17.9*^^$& %

Pro Ser Ile Vat Gly Arg Pro Arg His Gln Gly Val Met (PSIVGRPRHQGVM; listed as Sus scrofa) [CMS015]
weight of spleen (spleen index), X ± SD (%) (spleen; Table 30, peptide 5 μg/kg/day i.p. 15 days): 0.38 ± 0.15 %
weight of spleen (spleen index), X ± SD (%) (spleen; [2]): 0.36 ± 0.07 %
effect on the weight of the spleen (summary) (spleen): decrease

RVAPQQHPTL [CMS011]
weight of spleen (spleen index), X ± SD (%) (spleen; [2]): 0.41 ± 0.04 %
effect on the weight of the spleen (summary) (spleen): decrease
Survival index (%) ([1]; dose 5 μg/kg i.p. once per day): 60.2%
Survival days ([1]; dose 5 μg/kg i.p. once per day): 36.4 ± 22.2*^& days

Tyr Ser Leu (YSL; listed as Sus scrofa) [CMS024]
weight of spleen (spleen index), X ± SD (%) (spleen; [2]): 0.34 ± 0.05 %
effect on the weight of the spleen (summary) (spleen): decrease
postmortem examination of the mice surviving longer than 90 days ([1]; 0.5 μg/kg/day): did not show sign of tumor establishment
mice that could survive longer than 90 days ([1]; 0.5 μg/kg/day, n=6, two months after the experiment ended): more than 30%
Survival index (%) [1, 5]: 76.9%
Survival days [1, 5]: 46.4 ± 14.8*^^&$ days
Survival index (%) ([1]; dose 5 μg/kg i.p. once per day): 54.8%
Survival days ([1]; dose 5 μg/kg i.p. once per day): 40.6 ± 14.6*^&$ days
Survival index (%) [1, 6]: 38.4%
Survival days [1, 6]: 36.3 ± 12.7*^&$ days
Stimulation index (T lymphocyte; dose 0.5 μg/kg): 1.46 ± 0.19*^$
Stimulation index (T lymphocyte; dose 5 μg/kg): 1.45 ± 0.21*^$
NK activity index (%) (NK cell; dose 0.5 μg/kg): 39.3 ± 18.7*^$ %
NK activity index (%) (NK cell; dose 5 μg/kg): 34.9 ± 12.1*^^$ %
NK activity index (%) (NK cell; dose 50 μg/kg): 43.6 ± 13.9*^^$& %

VAPEEHPTLLTEAPLNPK [CMS010]
weight of spleen (spleen index), X ± SD (%) (spleen; [3]): 0.38 ± 0.05 %
effect on the weight of the spleen (summary) (spleen): decrease
Tumor inhibition index (%) (S180 sarcoma; [7]): 48.4%
Tumor weight (S180 sarcoma; [7]): 0.67 ± 0.35 g
Stimulation index (T lymphocyte; dose 500 μg/kg): 1.45 ± 0.21*^$

VGMGQKDSY
weight of spleen (spleen index), X ± SD (%) (spleen; [2]): 0.63 ± 0.08 %
effect on the weight of the spleen (summary) (spleen): increase
Stimulation index (T lymphocyte; dose 0.5 μg/kg): 1.50 ± 0.19*^$

VGMGQKDSYV [CMS020]
weight of spleen (spleen index), X ± SD (%) (spleen; [4]): 0.68 ± 0.09*^@^ %
effect on the weight of the spleen (summary) (spleen): increase

B1: IFN-γ: recombinant mouse IFN-γ (rmIFN-γ), Beijing Biotech Inc.; positive control (protein, UniProt P01580 23-155, looked up)
Interferon gamma: HGTVIESLESLNNYFNSSGIDVEEKSLFLDIWRNWQKDGDMKILQSQIISFYLRLFEVLKDNQAISNNISVIESHLITTFFSNSKAKKDAFMSIAKFEVNNPQVQRQAFNELIRVVHQLLPESSLRKRKRSRC
weight of spleen (spleen index), X ± SD (%) (spleen; [3]): 0.50 ± 0.04%
weight of spleen (spleen index), X ± SD (%) (spleen; [4]): 0.50 ± 0.04%
Tumor inhibition index (%) (S180 sarcoma; [8]): 25.3%
Tumor weight (S180 sarcoma; [8]): 0.96 ± 0.45 g
Survival index (%) ([1]; control rmIFN-γ 3 × 10^5 IU/kg): 6.1%
Survival days [1, 9]: 27.8 ± 7.5 days
Stimulation index (T lymphocyte; [9]): 1.27 ± 0.14
NK activity index (%) (NK cell; [8]): 20.9 ± 3.3%
